Test results published in patent US10287253B2, “Substituted pyrimidines containing acidic groups as TLR7 modulators” (Apros Therapeutics, Inc., priority 2016, dated 2019).

How the values were obtained:
human TLR7 (hTLR7) = human TLR7 (hTLR7) (Homo sapiens (Human), UniProt Q9NYK1); test: HEK TLR7 assay (HEK-Blue hTLR7 cells, NF-kB/AP-1 SEAP reporter); assay type: cell-based; conditions: HEK-Blue hTLR7 cells, 16 h incubation, SEAP read at 620-655 nm
Excerpt: HEK-Blue™ TLR7 cells were purchased from Invivogen (San Diego, Calif.). The following description was taken from the product information sheet.
“HEK-Blue™ hTLR7 cells are designed for studying the stimulation of human TLR7 (hTLR7) by monitoring the activation of NF-kB. HEK-Blue™ hTLR7 cells were obtained by co-transfection of the hTLR7 gene and an optimized secreted embryonic alkaline phosphatase (SEAP) reporter gene into HEK293 cells. The SEAP reporter gene is placed under the control of the IFN-b minimal promoter fused to five NF-kB and AP-1-binding sites. Stimulation with a TLR7 ligand activates NF-kB and AP-1 which induce the production of SEAP, which is detected by the HEK-Blue™ Detection cell culture medium.”
A typical assay protocol involved the following steps: • 1. Cells were cultured according to the product information sheet. • 2. 10 mM compound stock in DMSO were first diluted to 3 mM and then 3-fold serially diluted using DMSO to afford a 10-pt dilution. • 3. 3 μl of the diluted DMSO were added to 57 μl HEK-Blue™ Detection media for a further 20-fold dilution. • 4. 10 μl of the diluted compound in assay media were added into 40 μl cell culture (in HEK-Blue™ Detection media) in 384-well plate. Final cell concentration=8,000 cells per well. • 5. The plates were incubated at 37° C. in 5% CO2 for 16 h. SEAP was determined using a spectrophotometer at 620-655 nm.

[1] = Pharmacokinetics experiments: mouse liver-to-serum concentration (L:S); assay type: in vivo; conditions: BALB/c mice, 10 mg/kg p.o., 5 hour post dose
Experimental: BALB/c mice were dosed p.o. with 10 mg/kg compound formulated in 0.5% carboxy methycellulose+0.5% Tween-80 suspension. Mice were bled retro-orbitally at different time points post dose. Blood was processed into serum by centrifugation followed by protein precipitation, reverse-phase gradient elution and MRM detection via ESI+mass spectrometry to determine compound concentration. Animals were sacrificed after the final blood collection (5 hour), liver removed and flash frozen in liquid nitrogen for tissue PK analyses. The liver-to-serum concentration (L:S) at 5 hour post dose is one parameter for identifying compounds with potential enrichment in liver.
Mouse liver-to-serum concentration (L:S) table below provides results.

Sequence of human TLR7 (hTLR7) (Q9NYK1 27-1049): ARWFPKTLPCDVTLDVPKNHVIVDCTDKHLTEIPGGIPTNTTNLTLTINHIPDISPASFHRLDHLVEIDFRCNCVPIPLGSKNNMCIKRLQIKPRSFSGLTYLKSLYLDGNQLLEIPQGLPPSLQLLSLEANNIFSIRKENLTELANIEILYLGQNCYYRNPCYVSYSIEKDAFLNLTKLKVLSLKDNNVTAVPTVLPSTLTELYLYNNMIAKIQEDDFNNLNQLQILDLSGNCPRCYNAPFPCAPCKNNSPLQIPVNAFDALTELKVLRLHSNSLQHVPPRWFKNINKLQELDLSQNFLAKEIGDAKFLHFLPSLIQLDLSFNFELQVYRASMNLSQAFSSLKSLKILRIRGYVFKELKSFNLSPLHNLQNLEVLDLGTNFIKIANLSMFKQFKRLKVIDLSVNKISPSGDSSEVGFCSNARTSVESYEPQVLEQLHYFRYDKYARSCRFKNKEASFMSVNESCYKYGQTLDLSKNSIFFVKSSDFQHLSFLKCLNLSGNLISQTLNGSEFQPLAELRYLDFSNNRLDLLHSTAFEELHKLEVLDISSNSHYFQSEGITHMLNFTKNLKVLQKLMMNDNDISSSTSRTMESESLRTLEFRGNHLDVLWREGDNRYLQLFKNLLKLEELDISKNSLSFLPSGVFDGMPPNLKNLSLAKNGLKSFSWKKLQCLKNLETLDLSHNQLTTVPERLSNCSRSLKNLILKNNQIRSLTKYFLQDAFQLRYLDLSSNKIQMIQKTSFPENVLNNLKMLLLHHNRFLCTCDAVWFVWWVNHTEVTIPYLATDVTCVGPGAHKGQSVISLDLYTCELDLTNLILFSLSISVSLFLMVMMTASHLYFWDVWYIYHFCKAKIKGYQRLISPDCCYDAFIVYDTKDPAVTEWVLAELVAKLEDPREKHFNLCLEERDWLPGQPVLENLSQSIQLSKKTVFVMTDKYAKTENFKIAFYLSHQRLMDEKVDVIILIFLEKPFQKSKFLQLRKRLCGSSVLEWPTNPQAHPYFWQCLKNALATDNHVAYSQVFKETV

| SMILES | EC50 (human TLR7 (hTLR7)) [nM] | L:S at 5 hr (liver-to-serum concentration) [1] |
| --- | --- | --- |
| CCCC[C@@H](CC(=O)O)Nc1nc(N)nc(CCC(=O)O)c1Cc1cc(C(C)(C)C(=O)O)ccc1OC [Compound 45, (S)-3-((2-amino-6-(2-carboxyethyl)-5-(5-(2-carboxypropan-2-yl)-2-methoxy-benzyl)pyrimidin-4-yl)amino)heptanoic acid] | 1000 to 10000 | A (A = >100 represents high liver-enrichment) |
| CCCCNc1nc(N)nc(CCC(=O)O)c1Cc1cc(C(C)(C)C(=O)O)ccc1OC [Compound 43, 2-(3-((2-amino-4-(butylamino)-6-(2-carboxyethyl)pyrimidin-5-yl)methyl)-4-methoxy-phenyl)-2-methylpropanoic acid] | 1000 to 10000 | A (A = >100 represents high liver-enrichment) |
| CCCCNc1nc(N)nc(CCC(=O)O)c1Cc1ccccc1OC [Compound 15, 3-(2-amino-6-(butylamino)-5-(2-methoxybenzyl)pyrimidin-4-yl)propanoic acid] | 100 to 1000 | B (B = 10-100 represents moderate liver-enrichment) |
| CCCC[C@@H](CC(=O)O)Nc1nc(N)nc(C)c1Cc1cc(C(C)(C)C(=O)O)ccc1OC [Compound 42, (S)-3-((2-amino-5-(5-(2-carboxypropan-2-yl)-2-methoxybenzyl)-6-methylpyrimidin-4-yl)amino)heptanoic acid] | 100 to 1000 | A (A = >100 represents high liver-enrichment) |
| CCCCNc1nc(N)nc(C)c1Cc1cc(P(=O)(O)O)ccc1OC [Compound 12, (3-((2-amino-4-(butylamino)-6-methylpyrimidin-5-yl)methyl)-4-methoxyphenyl)phosphonic acid] | 100 to 1000 | B (B = 10-100 represents moderate liver-enrichment) |
| CCCCNc1nc(N)nc(C)c1Cc1cc(C(C)(C)C(=O)O)ccc1OC [Compound 9, 2-(3-((2-amino-4-(butylamino)-6-methylpyrimidin-5-yl)methyl)-4-methoxyphenyl)-2-methylpropanoic acid] | 100 to 1000 | A (A = >100 represents high liver-enrichment) |
| CCCCNc1nc(N)nc(C)c1Cc1cc(Cc2nn[nH]n2)ccc1OC [Compound 3, 5-(5-((2H-tetrazol-5-yl)methyl)-2-methoxybenzyl)-N4-butyl-6-methylpyrimidine-2,4-diamine] | 100 to 1000 | A (A = >100 represents high liver-enrichment) |
| CCCC[C@@H](CC(=O)O)Nc1nc(N)nc(CCC(=O)O)c1Cc1cc(Cc2nn[nH]n2)ccc1OC [Compound 46, (S)-3-((5-(5-((2H-tetrazol-5-yl)methyl)-2-methoxybenzyl)-2-amino-6-(2-carboxyethyl)-pyrimidin-4-yl)amino)heptanoic acid] | 100 to 1000 | B (B = 10-100 represents moderate liver-enrichment) |

More lines, main results first:

| EC50 (human TLR7 (hTLR7)) [nM] | SMILES | L:S at 5 hr (liver-to-serum concentration) [1] |
| --- | --- | --- |
| 100 to 1000 | CCCCNc1nc(N)nc(C)c1Cc1cc(C(=O)NCCCP(=O)(O)O)ccc1OC [Compound 30, (3-(3-((2-amino-4-(butylamino)-6-methylpyrimidin-5-yl)methyl)-4-methoxybenzamido)propyl)phosphonic acid] | A (A = >100 represents high liver-enrichment) |
| 100 to 1000 | CCCC[C@@H](CC(=O)O)Nc1nc(N)nc(C)c1Cc1cc(C(=O)NCCCP(=O)(O)O)ccc1OC [Compound 44, (S)-3-((2-amino-5-(2-methoxy-S-((3-phosphonopropyl)carbamoyl)benzyl)-6-methyl-pyrimidin-4-yl)amino)heptanoic acid] | B (B = 10-100 represents moderate liver-enrichment) |
| 100 to 1000 | CCCCNc1nc(N)nc(C)c1Cc1cc(C(C)(C)c2nn[nH]n2)ccc1OC [Compound 10, 5-(5-(2-(2H-tetrazol-5-yl)propan-2-yl)-2-methoxybenzyl)-N4-butyl-6-methylpyrimidine-2,4-diamine] | B (B = 10-100 represents moderate liver-enrichment) |
| < 100 | CCCC[C@@H](CCSC)Nc1nc(N)nc(C)c1Cc1cc(C(C)(C)C(=O)O)ccc1OC [Compound 33, (S)-2-(3-((2-amino-4-methyl-6-((1-(methylthio)heptan-3-yl)amino)pyrimidin-5-yl)methyl)-4-methoxyphenyl)-2-methylpropanoic acid] | A (A = >100 represents high liver-enrichment) |
| 100 to 1000 | CCCCNc1nc(N)nc(C)c1Cc1cc(-c2nn[nH]n2)ccc1OC [Compound 11, N4-butyl-5-(2-methoxy-5-(2H-tetrazol-5-yl)benzyl)-6-methylpyrimidine-2,4-diamine] | A (A = >100 represents high liver-enrichment) |
| 100 to 1000 | CCCCNc1nc(N)nc(CCC(=O)O)c1Cc1cc(Cc2nn[nH]n2)ccc1OC [Compound 40, 3-(5-(5-((2H-tetrazol-5-yl)methyl)-2-methoxybenzyl)-2-amino-6-(butylamino)pyrimidin-4-yl)propanoic acid] | A (A = >100 represents high liver-enrichment) |
| 100 to 1000 | CCCCNc1nc(N)nc(C)c1Cc1cc(C2(c3nn[nH]n3)CC2)ccc1OC [Compound 13, 5-(5-(1-(2H-tetrazol-5-yl)cyclopropyl)-2-methoxybenzyl)-N4-butyl-6-methylpyrimidine-2,4-diamine] | B (B = 10-100 represents moderate liver-enrichment) |
| < 100 | CCCC[C@@H](CCSC)Nc1nc(N)nc(C)c1Cc1cc(-c2nn[nH]n2)ccc1OC [Compound 34, (S)-5-(2-methoxy-5-(2H-tetrazol-5-yl)benzyl)-6-methyl-N^4-(1-(methylthio)heptan-3-yl)pyrimidine-2,4-diamine] | A (A = >100 represents high liver-enrichment) |
| 100 to 1000 | CCCC[C@@H](CC(=O)O)Nc1nc(N)nc(C)c1Cc1ccccc1OC [Compound 41, (S)-3-((2-amino-5-(2-methoxybenzyl)-6-methylpyrimidin-4-yl)amino)heptanoic acid] | B (B = 10-100 represents moderate liver-enrichment) |
| 100 to 1000 | CCCC[C@@H](CC(=O)O)Nc1nc(N)nc(CCC(=O)O)c1Cc1ccccc1OC [Compound 29, (S)-3-((2-amino-6-(2-carboxyethyl)-5-(2-methoxybenzyl)pyrimidin-4-yl)amino)heptanoic acid] | A (A = >100 represents high liver-enrichment) |
| < 100 | CCCC[C@@H](CCOC)Nc1nc(N)nc(C)c1Cc1cc(Cc2nn[nH]n2)ccc1OC [Compound 32, (S)-5-(5-((2H-tetrazol-5-yl)methyl)-2-methoxybenzyl)-N^4-(1-methoxyheptan-3-yl)-6-methylpyrimidine-2,4-diamine] | A (A = >100 represents high liver-enrichment) |
| < 100 | CCCCNc1nc(N)nc(C)c1Cc1cc(S(=O)(=O)O)ccc1OC [Compound 17, 3-((2-amino-4-(butylamino)-6-methylpyrimidin-5-yl)methyl)-4-methoxybenzenesulfonic acid] | B (B = 10-100 represents moderate liver-enrichment) |
| < 100 | CCCC[C@@H](CCO)Nc1nc(N)nc(C)c1Cc1cc(Cc2nn[nH]n2)ccc1OC [Compound 18, (S)-3-((5-(5-((2H-tetrazol-5-yl)methyl)-2-methoxybenzyl)-2-amino-6-methylpyrimidin-4-yl)amino)heptan-1-ol] | A (A = >100 represents high liver-enrichment) |
